Consider 9 compounds from US4902677A, “Treatment of heart failure of mammals with N^6 -substituted cyclic adenosine monophosphates” (Kikkoman Corporation, priority 1987, dated 1990).

Data set [1] concerns guinea pig papillary muscle. The experiment in a line: Contractive force of extirpated guinea pig papillary muscle preparation (Test Example 1). Conditions: Cavia porcellus; 10^-3 M; relative to 10^-7 M Isoproterenol (positive control) as 100%; read-out: Increase in contractive force. The procedure:
Test animal: guinea-pigs Method of Experiment: extirpated guinea pig papillary muscle preparation. Male albino guinea pigs having body weights of 300 to 500 g were stunned by a blow on the head. The hearts were quickly extirpated and the papillary muscles of the right ventricle were dissected out in cold bathing solution (2° to 4° C.), and were suspended in a 10 ml organ bath for recording isometric contractions. The bathing solution was the Krebs-Henseleit solution (32°±0.5° C.) and was continuously bubbled with a mixed gas composed of 95% O2 and 5% CO2. The papillary muscle preparation were stimulated by square wave pulses of 1 msec duration at the frequency of 1 Hz and at voltages of 20% above the threshold supplied by a square-wave pulse stimulator via a pair of the silver plate electrodes in which the preparations were placed. The isometric contraction was measured by a force-displacement transducer connected to a carrier-amplifier. The test solution was prepared by dissolving the sodium salt into distilled water or dissolving the free acid into Krebs-Henseleit solution. […] The results are shown as relative values (%), taking the result given by a reaction using 10^-7 M Isoproterenol (positive control) as 100%.

A short description of data set [2]: Acute toxicity, intraperitoneal (Test Example 3). Conditions: mouse, in vivo, ip, female mice, in dimethyl sulfoxide, observed for 7 days. The procedure:
Test animal: female ICR-CRJ: CD-1 mice, 5 weeks old, body weight 29 to 32 g
LD50 was calculated according to the Richfield-Wilcockson method (Pharmacological Tests, p 200-205, Nanzando, 1967).

Another data set relates to heart-lung preparation. The experiment in a line: Cardiotonic activity on heart-lung preparation, acute heart failure induced by Pentobarbital (Test Example 2). Set-up: species or system dog. The conditions noted are these: for Change in Heart rate / Decrease in right atrium pressure / Increase in systemic output: versus nonadministration group. The procedure:
Test animal: Crossbred adult dogs (female and male) Method of Experiment: cardiotonic activity on heart-lung preparation. Using female and male crossbred dogs having body weights of 9 to 10 kg anesthetized with Pentobarbital, heart-lung preparations were prepared in the usual way, on which systemic output, right atrium pressure and heart rate were measured. […] Regarding the control (no administration group), the results express the values after administration of Pentobarbital.

Another data set has as its system heart. The conditions noted are these: literature; result in words; cited from earlier work.

Where a name gives a salt, the structure may show the parent alone.

A word on the LD50: it is the dose at which mortality reaches 50%.

As to `CC(C)CNc1ncnc2c1ncn2[C@@H]1O[C@@H]2COP(=O)(O)O[C@H]2[C@H]1O` [N^6 --Isobutyl-C--AMP], the activation at 1000 µM in data set [1] came out at 24%.

With `CCCCCCCCCNc1ncnc2c1ncn2[C@@H]1O[C@@H]2COP(=O)(O)O[C@H]2[C@H]1O` [N^6 --Nonyl-C--AMP Na], in data set [1], the activation at 1000 µM is 49.5%. Further, the LD50 at 168 h in data set [2] was 150 mg/kg.

Regarding `CCCCCCCNc1ncnc2c1ncn2[C@@H]1O[C@@H]2COP(=O)(O)O[C@H]2[C@H]1O` [sodium salt of N^6-heptyl-adenosine-3',5'-cyclic phosphate], in the data set with heart-lung preparation (10 mg), the Heart rate is on record as 112 beats/min, the Right atrium pressure came out at 96.9 mm H2 O, the Systemic output turned out to be 409 ml/min./100 g heart and the “Change in Heart rate” value amounted to 2 beats/min. Further, in the data set on heart-lung preparation (10 mg), the “Decrease in right atrium pressure” value turned out to be 12.1 mm H2 O and the “Increase in systemic output” value is on record as 150 ml/min./100 g heart. For the same compound, in the data set on heart-lung preparation (30 mg), the Heart rate is recorded as 120 beats/min, the Right atrium pressure came out at 68.3 mm H2 O, the Systemic output turned out to be 610 ml/min./100 g heart and the “Change in Heart rate” value is given as 10 beats/min. In addition, in the data set on heart-lung preparation (30 mg), the “Decrease in right atrium pressure” value was found to be 40.7 mm H2 O and the “Increase in systemic output” value stood at 351 ml/min./100 g heart.

Consider `O=P1(O)OC[C@H]2O[C@@H](n3cnc4c(NCc5ccccc5)ncnc43)[C@H](O)[C@@H]2O1` [N^6 --Benzyl-C--AMP Na], for which the activation at 1000 µM in data set [1] amounted to 91.7%. Also, in data set [2], the LD50 at 168 h was 383 mg/kg.

With `CCCCCCCNc1ncnc2c1ncn2[C@@H]1O[C@@H]2COP(=O)(O)O[C@H]2[C@H]1O` [N^6 --Heptyl-C--AMP, N^6-heptyladenosine-3',5'-cyclic phosphate], in data set [1], the activation at 1000 µM came out at 94.1%. Moreover, the “acute heart failure state induced by Pentobarbital” value with heart-lung preparation (10 mg or 30 mg, result in words) is “remarkably improved”. Moreover, the LD50 at 168 h in data set [2] stood at 174 mg/kg.

Regarding `O=P1(O)OC[C@H]2O[C@@H](n3cnc4c(NCc5ccco5)ncnc43)[C@H](O)[C@@H]2O1` [N^6 --Furfuryl-C--AMP Na], in data set [1], the activation at 1000 µM amounted to 93.2%. The LD50 at 168 h in data set [2] is 483 mg/kg.

`CCCCNc1ncnc2c1ncn2[C@@H]1O[C@@H]2COP(=O)(O)O[C@H]2[C@H]1O` [N^6 --Butyl-C--AMP]: in data set [1], the activation at 1000 µM came out at 71%. Further, the LD50 at 168 h in data set [2] was found to be 350 mg/kg.

For `CCCCCNc1ncnc2c1ncn2[C@@H]1O[C@@H]2COP(=O)(O)O[C@H]2[C@H]1O` [N^6 --Pentyl-C--AMP], in data set [1], the activation at 1000 µM worked out at 98%.

Take `CCCC(=O)Nc1ncnc2c1ncn2[C@@H]1O[C@@H]2COP(=O)(O)O[C@H]2[C@H]1OC(=O)CCC` [N^6,2'-O-dibutyryl C-AMP]: the myocardial contractility entry in the data set on heart is listed as “have a mycocardial contractile effect”.
